Test results: patent publication US8916604B2, “Compositions and methods for epigenetic modification of nucleic acid sequences” (Rutgers, The State University of New Jersey, priority 2011, dated 2014)

How the values were obtained:
HO-1 = experiment: qPCR mRNA expression in HepG2-C8 cells; assay type: cell-based, human; details: 25 μM, 6 h, vs 0.1% DMSO
Experimental: (§1) The cells were treated similarly to the NITS and ARE-luciferase assays described above using 10% FBS medium. The incubation of the compounds with the cells was terminated 6 h later. The mRNA expression was evaluated utilizing a quantitative real-time polymerase chain reaction (qPCR). An RNeasy kit from Qiagen was used for RNA extraction (Valencia, Calif.). The total RNA was reverse-transcribed to cDNA by TaqMan Reverse Transcription Reagents (Applied Biosystems Inc, Foster City, Calif.). SYBR Green (Applied Biosystems Inc, Foster City, Calif.) fluorescence was used to measure the product of qPCR. Glyceraldehyde 3-phosphate dehydrogenase (GAPDH) was used as the housekeeping gene, and the Applied Biosystems 7900HT Fast Real-Time PCR System (Applied Biosystems Inc, Foster City, Calif.) was used as described previously (Saw et al., Biochem Pharmacol 2010; 79: 421-430) to detect quantitatively the induction of mRNA of Nrf2, phase II DME GSTm2, NAD (P)H dehydrogenase, quinone 1 (NQO1), UGT family, polypeptide A1 (UGT1A1) and antioxidant enzymes HO-1, superoxide dismutase 1 (SOD1). The primer pairs were designed using the Primer Quest Oligo Design and Analysis Tool by Integrated DNA Technologies Inc. (Coralville, Iowa, USA) and the sequences are listed in Table 4. At least four wells of each treatment were performed and duplicate samples were carried out for each treatment.

Nrf2 = experiment: qPCR mRNA expression in HepG2-C8 cells; assay type: cell-based, human; details: 25 μM, 6 h, vs 0.1% DMSO
Experimental: as §1

[1] = Overall health and toxicity of TRAMP mice on DIM diet; assay type: in vivo
Experimental: DIM was obtained from Sigma-Aldrich (St. Louis, Mo., U.S.A.). MN-76A diets containing 1% DIM were prepared by Research Diets Inc. (New Brunswick, N.J., U.S.A.) and stored at −20° C. The dose was chosen based in part on studies reported previously Anderton et al., Drug Metab Dispos. 2004; 32: 632-8; and Xue et al., J Nutr Biochem. 2008; 19: 336-44). In our present study, 1% DIM was well-tolerated with these TRAMP mice. The control TRAMP males (n=19) received A1N-76A diets throughout the experiment while the treated TRAMP males received 1% DIM diet starting from eight weeks of age (n=9) as Group 1 (D-G1) and Group 2 (D-G2) starting from twelve weeks of age (n=8) (FIG. 12A). Fresh diets were added to the cages twice weekly.
TRAMP males were weighed weekly and the overall health of the animals was monitored on a regular basis. All mice were sacrificed at the age of 24 weeks by carbon dioxide euthanasia and the genitourinary apparatus (GU) consisting of the seminal vesicles, prostate, and bladder were isolated for further analyses (FIG. 12B).
The overall health of all the mice was monitored during the study period and found to be in good health. All mice were weighed and checked weekly during the course of this study.

PCNA = experiment: IHC staining of TRAMP prostate tissue, cell proliferation; assay type: in vivo, mouse; details: D-G1 (16 weeks) or D-G2 (12 weeks) vs control
Experimental: (§2) Sections (4 μm) were cut from the paraffin embedded prostate tissue and mounted on glass slides. The slides Were deparafinized in xylene and antigen unmasking was performed by applying proteinase K digestion directly on the slides for 15 min. Endogenous peroxidase was blocked by incubating in 3% […] for 5 min, and ApopTag Plus Peroxidase In Situ Apoptosis Detection Kit (Millipore, Temecula, Calif., U.S.A.) was used to detect apoptotic cells. For detection of proliferative cells, monoclonal mouse anti-proliferating cell nuclear antigen (PCNA) antibody (Clone PC10, 1:50, Dako North America, Carpinteria, Calif., U.S.A.) was used (12). The staining was performed following as the manufacturer's protocols. Anti-5-methylcytosine (5-MC) mouse monoclone antibody (Clone 162 33 D3, 1:50, EMD Chemicals, Philadelphia, Pa., U.S.A.) was used to detect genome-wide methylated DNA. […] Quantitation of IHC staining was done using the Aperio ScanScope® GL system according to the manufactures protocol (Aperio Technologies Inc., Vista, Calif., U.S.A.). […] The Aperio ImageScopoe software (v 10.1.3.2028) allowed the unbiased quantification and quantitative analysis of the IHC staining of biomarkers of prostate tumor samples obtained from untreated control versus the treated TRAMP mice.

[2] = test system: apoptotic cells in the dorso-lateral prostates; experiment: IHC staining of TRAMP prostate tissue, apoptosis (TUNEL); assay type: in vivo, mouse; details: D-G1 and D-G2 vs control, p<0.001
Experimental: as §2

[3] = test system: first five CpGs of the Nrf2 gene promoter; experiment: Bisulfite genomic sequencing of TRAMP prostate tissues; assay type: in vivo, mouse; details: control 98% methylation
Experimental: Genomic DNA was isolated from the control or DIM treated TRAMP C1 cells and TRAMP dorso-lateral prostate tissues collected from control and DIM treated groups pooled and homogenized using the DNeasy tissue kit (Qiagen, Valencia, Calif., U.S.A.). The genomic DNAs were extracted and subjected to bisulfite conversion carried out using 750 ng of genomic DNA and applying to EZ DNA Methylation Gold Kits (Zymo Research Corp., Orange, Calif., U.S.A.) following the manufacturer's instructions. The converted DNA was amplified by PCR utilizing Platinum PCR SuperMix (Invitrogen, Grand Island, N.Y., U.S.A.) with a set of specific primers, forward: 5′-AGTTATGAAGTAGTAGTAAAAA-3′ (SEQ ID NO: 37) and reverse: 5′-AATATAATCTCATAAAACCCCAC-3 (SEQ ID NO: 38), amplifying the first five CpGs located between −1266 and −1086 of the promoter region of Nrf2 with the translation initiation site defined as +1 (14, 20). Gel extraction using Qiaquick™ gel extraction kit (Qiagen, Valencia, Calif., U.S.A.) were used to purify the PCR products, then cloned into pCR4 TOPO vector using a TOPO™ TA Cloning kit (Invitrogen, Grand Island, N.Y., U.S.A.), Plasmids DNA from at least twenty colonies per for treatment were prepared using QIAprep Spin Miniprep Kit (Qiagen, Valencia Calif., U.S.A.) and sequenced (Genwiz, Piscataway, N.J., U.S.A.).

c1ccc2c(Cc3c[nH]c4ccccc34)c[nH]c2c1 [DIM, 3,3′-diindolylmethane]
HO-1 mRNA induction over control (HO-1): ~3 fold
Nrf2 mRNA induction over control (Nrf2): ~3 fold
weights of liver, kidney and spleen ([1]; 1% DIM diet, at sacrifice): no significant change
body weights ([1]; 1% DIM diet, throughout the study period): No significant change
signs of toxicity ([1]; mouse, in vivo): no specific observable sign of toxicity
tolerability ([1]; mouse, in vivo): well-tolerated
PCNA staining (cell proliferation) (PCNA): significantly lower levels
percent of apoptotic cells [2]: significantly higher
methylation of the first five CpGs of Nrf2 promoter ([3]; D-G1): 37.6%
methylation of the first five CpGs of Nrf2 promoter ([3]; D-G2): 54.4%
